Earlier results, collected in patent publication US20160106774A1, “LIQUID PHARMACEUTICAL COMPOSITION CONTAINING PIROXICAM AND HYALURONIC ACID FOR THE TREATMENT OF OSTEOARTHRITIS” (DONG-A ST CO., LTD, priority 2013, published 2016).

Tested on: carrageenan-induced animal podedema model
Settings: coadministration of NSAID with sodium hyaluronate; piroxicam 4 mg/kg and sodium hyaluronate 4 mg/kg; foot pad

SMILES	anti-inflammatory effect of coadministration with sodium hyaluronate
O=C(O)Cc1ccccc1Nc1c(Cl)cccc1Cl [diclofenac]	additive or synergistic effects
CC(C)Cc1ccc(C(C)C(=O)O)cc1 (stereo not shown) [ibuprofen]	additive or synergistic effects
COc1ccc2c(c1)c(CC(=O)O)c(C)n2C(=O)c1ccc(Cl)cc1 [indomethacin]	additive or synergistic effects
CN1C(C(=O)Nc2ccccn2)=C(O)c2ccccc2S1(=O)=O [piroxicam]	weak
